Measurements taken from patent US20240366589A1, “NHE3-BINDING COMPOUNDS AND METHODS FOR INHIBITING PHOSPHATE TRANSPORT” (Ardelyx, Inc., priority 2013, published 2024).
Entries after “also recorded” stand apart in the source; their conditions may differ.

How the values were obtained:
[1] = system: intestinal phosphate uptake; assay: Pharmacodynamic study with 33P oral challenge in normal function rats; assay type: in vivo, rat; conditions: 8 mM Pi with 33P, 10 mg/kg, dihydrochloride salts, FIG. 1A
Protocol: The compounds identified as Cpds 003, 004, and 005 (from Table E4, as their dihydrochloride salts) were tested for the ability to block intestinal phosphate uptake in rats. Rats were orally challenged with dosing solutions composed of 5 ml/kg (˜1.3 ml) of 8 mM Pi with ^33P and +/−10 mg/kg of test compound. Also included were dosing solutions further composed of either (i) 75 mM glucose+4 mM Ca or (ii) 4 mM Ca.

[2] = system: absorption of sodium from the intestinal lumen; assay: Fecal form score (FFS) 16 h after oral dose in rats; assay type: in vivo, rat; conditions: in words
Procedure, shortened: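 Fecal form was scored at 16 h post-dose on a 1–5 wetness scale (normal pellet to liquid stream), with two independent observations averaged across six rats per group. Animals were 8-week-old Sprague-Dawley rats given test compound or water orally in the late afternoon and kept in metabolic cages.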

[3] = system: uremic rat model of CKD featuring vascular calcification; assay: Rat model of uremia-associated vascular calcification (5/6 nephrectomy, calcitriol, 0.9% P diet); assay type: in vivo
Source text: Chronic kidney disease (CKD) has multiple pathogenic mechanisms, and advanced CKD is often characterized by disordered mineral metabolism (e.g., hyperphosphatemia, hypercalcemia) and vascular calcification. Studies were thus performed to test the effectiveness of the dihydrochloride salt of Cpd 002 (from Table E4, as the dihydrochloride salt) in a uremic rat model of CKD featuring vascular calcification. This model is characterized by renal insufficiency and regular active Vitamin D3 administration to promote hyperphosphatemia and vascular calcification (see Lopez et al., J. Am. Soc. Nephrol. 17:795-804, 2006). The study utilized Spraque-Dawley rats treated as follows: 5/6th nephrectomy by excision; regular calcitriol administration (active vitamin D3) 80 ng/kg i.p. 3/week; and fed a purified 0.9% P diet (inorganic phosphorus).
Rats were stratified into two experimental groups by serum creatinine levels of 0.8 to 1.5 mg/dl and body weight, fed drug-in-chow with powdered vehicle diet or the same diet with Cpd 002 (0.065 mg/g chow) mixed-in, and monitored for weekly body weight and selected serum parameters, daily clinical observations, and endpoint calcification. The study design is illustrated in FIG. 2.
Selected experimental groups were fed vehicle (n=12) or Cpd 002 (n=12) at enrollment (day 0).

[4] = system: phosphorus and calcium levels in the urine of rats; assay: Urinary excretion of phosphate and calcium in rats (16 h overnight urine); assay type: in vivo, rat
[5] = system: dietary salt-induced, partial renal ablation model of CKD; assay: Dietary salt-induced, partial renal ablation model of CKD in nephrectomized rats; assay type: in vivo, rat
Protocol: The effects of Cpd 002 (from Table E4, as the dihydrochloride salt) were tested in a dietary salt-induced, partial renal ablation model of CKD. The study design is illustrated in FIG. 11A (12 rats per group).

[6] = system: adenine-induced uremic rat model; assay: Adenine-induced uremic rat model; assay type: in vivo
Protocol: The effects of Cpd 002 (from Table E4, as the dihydrochloride salt) were tested in an adenine-induced uremic rat model. Rats were fed a diet including 0.75% adenine and 1.2% phosphorus during the nephritis induction phase. The basal diet during the treatment phase was normal chow including 0.3% adenine and 0.6% phosphorus for 2 weeks. The rats were pair-fed the first 5 days (groups 1 and 2 to group 3, 4 days apart), and fed ad libitum afterwards. The treatment groups were as follows: vehicle, n=10; Cpd 002, 2 mg/kg/day drug-in-chow, n=10; and Cpd 002, 5 mg/kg/day drug-in-chow, n=12. Weekly measurements were taken for serum markers and kidney function. The study design is illustrated in FIG. 8A.

[7] = endpoint day 27, 0.065 mg/g chow, vs vehicle
[8] = endpoint, 0.065 mg/g chow, vs vehicle
[9] = organ weight/body weight, 0.065 mg/g chow, vs vehicle
[10] = relative to vehicle-only control, 0.1-3.0 mg/kg, 16 h urine
[11] = early time points, 2 and 5 mg/kg/day drug-in-chow
[12] = week three, highest dose 5 mg/kg/day

CN1Cc2c(Cl)cc(Cl)cc2[C@@H](c2cccc(S(=O)(=O)NCCOCCOCCNC(=O)NCCCCNC(=O)NCCOCCOCCNS(=O)(=O)c3cccc([C@H]4CN(C)Cc5c(Cl)cc(Cl)cc54)c3)c2)C1 [Cpd 004]
Pi uptake after 33P oral challenge [1]: as potent at reducing Pi uptake as a persistent inhibitor such as Cpd 003
effect on fecal form [2]: no significant effect

CN1Cc2c(Cl)cc(Cl)cc2[C@H](c2cccc(S(=O)(=O)NCCOCCOCCNC(=O)NCCCCNC(=O)NCCOCCOCCNS(=O)(=O)c3cccc([C@@H]4CN(C)Cc5c(Cl)cc(Cl)cc54)c3)c2)C1 [Cpd 002]
endpoint plasma aldosterone ([3]; 0.065 mg/g chow, vs vehicle): aldosterone increase
plasma creatinine ([3]; endpoint day 27, 0.065 mg/g chow, dihydrochloride salt, vs vehicle): reduced plasma creatinine
plasma FGF-23 [3, 7]: reduced plasma FGF-23
plasma phosphorus [3, 7]: reduced plasma phosphorus; also recorded: anti-hyperphosphatemic effects
calcium and phosphorus in the stomach (soft tissue calcification) [3, 8]: reduced calcium and phosphorus in the stomach
vascular calcification as aortic mineral content [3, 8]: reduced vascular calcification; also recorded: reduce associated vascular calcification
endpoint heart weight (heart hypertrophy) [3, 9]: lessened; also recorded: reduce both heart hypertrophy and renal hypertrophy
endpoint kidney remnant weight (renal hypertrophy) [3, 9]: lessened; also recorded: reduce both heart hypertrophy and renal hypertrophy
moribundity ([3]; treatment group vs vehicle): decreased moribundity
mortality outcome ([3]; treatment group vs vehicle): trend toward improved mortality outcome
urine phosphorus mass ([4]; increasing dosages, relative to 48 mg/kg Renvela): significantly reduced
urine calcium mass [4, 10]: reduced
urine phosphorus mass [4, 10]: reduced
phosphorus urinary excretion ([5]; FIG. 11B): significantly reduced
blood pressure ([5]; dihydrochloride salt): improved
albuminuria ([5]; rat, in vivo): improved
fluid overload ([5]; rat, in vivo): improved
heart hypertrophy ([5]; rat, in vivo): improved
kidney hypertrophy ([5]; rat, in vivo): improved
serum creatinine [6, 11]: reduced
serum phosphorus [6, 11]: reduced
heart remodeling (organ weight) ([6]; week three): trend towards lesser heart and kidney remodeling
kidney remodeling (organ weight) ([6]; week three): trend towards lesser heart and kidney remodeling
heart calcification (tissue mineralization) [6, 12]: trend towards reduced heart and kidney calcification
kidney calcification (tissue mineralization) [6, 12]: trend towards reduced heart and kidney calcification
